Measured values from US3966944A, “10 (N-methyl-4-piperidylidene)-10H[1]-benzopyrano[3,2-b]-pyridine as an analgesic, anti-inflammatory and agent against type III hypersensitivity disease” (Abbott Laboratories, priority 1975, dated 1976).

Key:
mice = experiment: Analgesic Activity - Mouse Writhing Method (0.5% acetic acid IP); format: in vivo; details: for Ave. No. of Writhes/Mouse (±S.D.): 20 minute period, control saline 34.8 (8.8)
Description: Analgesic Activity of 10 (N-Methyl-4-Piperidylidene)-10H[1]-Benzopyrano[3,2-b]-Pyridine -- Mouse Writhing Method
Modified method of Whittle (Brit. J. Pharmacol. 1964, 22:246) -- Groups of 5 mice administered various dose-levels of the compound 30 minutes prior to the IP injection of 0.5% acetic acid (0.4 ml). Writhing counted for a 20 minute period following the acid injection.

[1] = tested on: Carrageenin Induced Rat Paw Edema; experiment: Carrageenin Induced Rat Paw Edema; format: in vivo, male Sprague-Dawley rats; details: for % INCREASE IN PAW SIZE OVER NORMAL: 3 hr. reading, 0.5% MC control 89.3%
Description: Carrageenin Induced Rat Paw Edema
The carrageenin induced rat paw edema test of Winter, et al. (Proc. Soc. Exp. Biol. and Med., 1962, 111:544) and modified by Van Arman, et al. (J. Pharmacol. Exp. Therap., 1965, 150:328) is used as a primary test for anti-inflammatory activity.
Groups of male Sprague-Dawley rats weighing 160-220 grams are used to compare various dose levels of the test compound to control animals. The compound is administered orally to the respective groups 1 hour prior to a sub-plantar injection into the left hind paw with 0.1 ml of a 1.5% suspension of carrageenin in saline. The paws are measured volumetrically by mercury displacement prior to (normal paw), 1.5, 3 and 5 hours after the carrageenin injection.
Activity is calculated as the percent difference (inhibition) between the increases in paw size (edema) of the test groups compared to the control groups.

[2] = tested on: reverse passive Arthus reaction; experiment: Reverse Passive Arthus Reaction (inhibition of the inflammatory lesion area); details: for % Inhibition of the Inflammatory Lesion Area: lesion excised 4 hours after Anti-B.S.A.

## 10 (N-methyl-4-piperidylidene)-10H[1]-benzopyrano[3,2-b]-pyridine [A-45637]
mice; 10 mg/kg oral
  Ave. No. of Writhes/Mouse (±S.D.): 31.4 (16.7) Writhes/Mouse
mice; 10 mg/kg oral, writhing, mice
  % Inhibition: 9.8%
mice; 20 mg/kg oral
  Ave. No. of Writhes/Mouse (±S.D.): 18.0 (8.3) Writhes/Mouse
mice; 20 mg/kg oral, writhing, mice
  % Inhibition: 48.3%
mice; 40 mg/kg oral
  Ave. No. of Writhes/Mouse (±S.D.): 15.8 (8.0) Writhes/Mouse
mice; 40 mg/kg oral, writhing, mice
  % Inhibition: 54.6%
mice; 80 mg/kg oral
  Ave. No. of Writhes/Mouse (±S.D.): 6.6 (4.6) Writhes/Mouse
mice; 80 mg/kg oral, writhing, mice
  % Inhibition: 81.0%
mice; P.O., mice, writhing, 95% CL (10.9-98.0)
  ED50: 29.7 mg/kg
[1]; 2 mg/kg oral
  % INCREASE IN PAW SIZE OVER NORMAL: 66.9%
[1]; 2 mg/kg oral, rat
  % INHIBITION OF EDEMA (3 HR. READING): 25.1%
[1]; 4 mg/kg oral
  % INCREASE IN PAW SIZE OVER NORMAL: 55.3%
[1]; 4 mg/kg oral, rat
  % INHIBITION OF EDEMA (3 HR. READING): 38.1%
[1]; 8 mg/kg oral
  % INCREASE IN PAW SIZE OVER NORMAL: 50.0%
[1]; 8 mg/kg oral, rat
  % INHIBITION OF EDEMA (3 HR. READING): 44.0%
[1]; 16 mg/kg oral
  % INCREASE IN PAW SIZE OVER NORMAL: 33.1%
[1]; 16 mg/kg oral, rat
  % INHIBITION OF EDEMA (3 HR. READING): 62.9%
[1]; oral, rat, carrageenin paw edema, limits in parentheses
  ED25: 2.04 (0.34, 3.55)
[2]; 0.75 mg/kg PO, rat
  % Inhibition of the Inflammatory Lesion Area: 43.2%
[2]; 1.5 mg/kg PO, rat
  % Inhibition of the Inflammatory Lesion Area: 64.4%
[2]; 2.5 mg/kg PO, rat
  % Inhibition of the Inflammatory Lesion Area: 70.9%
[2]; 5 mg/kg PO, rat
  % Inhibition of the Inflammatory Lesion Area: 81.2%
[2]; 10 mg/kg PO, rat
  % Inhibition of the Inflammatory Lesion Area: 82.9%
[2]; PO, rat, printed limits (.07, 1.5)
  Calculated ED50 value: 0.78 mg/kg

## CN(C)CCC(c1ccc(Cl)cc1)c1ccccn1 (racemic) [chlorpheninamine, reference compound]
[2]; 10 mg/kg, P.O.
  activity in the reverse passive Arthus reaction: completely inactive

## CN1CCC(=C2c3ccccc3C=Cc3ccccc32)CC1 [cyproheptadine, reference compound]
[2]; 5 mg/kg P.O.
  activity in the reverse passive Arthus reaction: completely inactive
